The text below walks through data of doi:10.1101/2025.10.17.681057v1 (biorxiv, 2025).

The target of one test is CYP3A4 (Homo sapiens, UniProt P08684). The test can be described thus: P450 spectral binding titration.
The target of test [1] is T1, Fatty Acid Amide Hydrolase (FAAH) (Homo sapiens, UniProt O00519).
T1 sequence (O00519 1-579): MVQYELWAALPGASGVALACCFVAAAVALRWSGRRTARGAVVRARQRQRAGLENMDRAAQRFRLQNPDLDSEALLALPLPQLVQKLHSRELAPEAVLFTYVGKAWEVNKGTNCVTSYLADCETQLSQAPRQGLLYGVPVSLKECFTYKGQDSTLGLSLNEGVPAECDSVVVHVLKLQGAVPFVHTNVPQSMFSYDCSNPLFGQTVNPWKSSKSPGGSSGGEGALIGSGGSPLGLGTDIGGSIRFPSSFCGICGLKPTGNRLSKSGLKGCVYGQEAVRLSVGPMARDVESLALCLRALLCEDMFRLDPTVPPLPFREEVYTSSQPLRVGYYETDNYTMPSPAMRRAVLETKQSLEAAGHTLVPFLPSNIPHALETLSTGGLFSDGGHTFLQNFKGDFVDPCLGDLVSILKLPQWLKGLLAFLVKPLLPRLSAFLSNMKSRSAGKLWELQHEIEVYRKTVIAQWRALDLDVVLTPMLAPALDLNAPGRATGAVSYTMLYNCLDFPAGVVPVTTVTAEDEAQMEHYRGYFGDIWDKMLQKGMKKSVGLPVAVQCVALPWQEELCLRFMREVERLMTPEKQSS
Briefly: fluorescence assay of AMC release from anandamide-AMC, 4-parameter logistic fit. In kind it is biochemical.

Another test has as its target T2, human CYP2J2 (Homo sapiens, UniProt P51589).
T2 sequence (P51589 1-502): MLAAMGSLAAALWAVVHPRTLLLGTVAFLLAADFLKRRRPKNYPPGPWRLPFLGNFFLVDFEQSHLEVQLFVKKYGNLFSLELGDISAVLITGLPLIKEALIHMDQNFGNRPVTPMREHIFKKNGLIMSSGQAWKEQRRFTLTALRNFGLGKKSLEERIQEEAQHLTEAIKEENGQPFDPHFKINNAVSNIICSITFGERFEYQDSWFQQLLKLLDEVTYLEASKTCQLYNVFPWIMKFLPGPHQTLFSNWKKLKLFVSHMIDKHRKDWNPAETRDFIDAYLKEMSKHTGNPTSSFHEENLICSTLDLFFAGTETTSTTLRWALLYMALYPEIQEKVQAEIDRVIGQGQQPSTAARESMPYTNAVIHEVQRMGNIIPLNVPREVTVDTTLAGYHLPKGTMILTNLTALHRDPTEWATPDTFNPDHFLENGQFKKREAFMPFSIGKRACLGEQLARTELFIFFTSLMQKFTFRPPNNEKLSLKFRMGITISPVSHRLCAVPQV
The test can be described thus: P450 spectral binding titration.

In general, Kd refers to the free concentration of one partner at which half of the binding sites on the other are occupied at equilibrium, for simple one-to-one binding. A lower Kd goes with higher affinity. By IC50 is commonly meant the concentration needed to halve the response being measured.

Sequence of CYP3A4 (P08684 2-503): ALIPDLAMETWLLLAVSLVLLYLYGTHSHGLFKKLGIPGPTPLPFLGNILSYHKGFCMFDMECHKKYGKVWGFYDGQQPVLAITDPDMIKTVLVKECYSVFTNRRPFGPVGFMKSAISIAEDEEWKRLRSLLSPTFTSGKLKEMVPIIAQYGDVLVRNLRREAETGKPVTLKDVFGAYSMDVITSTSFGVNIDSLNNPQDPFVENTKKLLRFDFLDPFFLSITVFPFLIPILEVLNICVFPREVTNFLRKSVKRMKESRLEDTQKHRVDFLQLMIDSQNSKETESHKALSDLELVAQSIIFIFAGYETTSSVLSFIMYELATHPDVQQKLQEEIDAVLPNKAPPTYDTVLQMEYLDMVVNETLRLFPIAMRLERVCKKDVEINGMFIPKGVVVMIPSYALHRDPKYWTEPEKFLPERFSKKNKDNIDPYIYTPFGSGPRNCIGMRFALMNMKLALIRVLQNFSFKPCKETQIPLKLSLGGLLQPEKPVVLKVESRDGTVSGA

For the molecule `CC/C=C\C/C=C\C/C=C\C/C=C\C/C=C\C/C=C\CCC(=O)NCC(=O)O` [DHA-Gly], the Kd was 20.3 ± 6.13 µM on CYP3A4 and 2.47 ± 0.26 µM at human CYP2J2. In test [1], this molecule yielded an IC50 of 35.3 ± 1.82 µM.
In test [1], `CCCCC/C=C\C/C=C\C/C=C\C/C=C\CCCC(=O)NCC(=O)O` [NA-Gly] showed a concentration for half-maximal inhibition (IC50) of 14.2 ± 1.07 µM. Also, binding on human CYP2J2 was characterised by a dissociation constant (Kd) of 3.3 ± 0.31 µM.
